# Source: US12336981B2, “Compounds and compositions for the inhibition of NAMPT” (Valo Health, Inc., priority 2010, dated 2025)
# Read-outs that look alike come from different tables or passages of the source.
# Tests used:
# A2780 cells = assay: In-vitro cell proliferation assay (SRB), A2780 cells; assay type: cell-based; conditions: Homo sapiens, A2780, 72 h, A2780 cells, 72 hours, read-out: A2780 IC50
# In short: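 Proliferation is assessed by sulforhodamine B staining following a 72-hour incubation with compound dilutions containing 0.1% DMSO.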
# NAMPT = target: T1, NAMPT (Homo sapiens, UniProt P43490); assay: Biochemical inhibition assay: NAMPT enzymatic reaction, NMN quantified by mass spectrometry; conditions: read-out: Biochem IC50
# T1 construct: His tag; host or cells: E. coli
# T1 sequence (P43490 whole entry): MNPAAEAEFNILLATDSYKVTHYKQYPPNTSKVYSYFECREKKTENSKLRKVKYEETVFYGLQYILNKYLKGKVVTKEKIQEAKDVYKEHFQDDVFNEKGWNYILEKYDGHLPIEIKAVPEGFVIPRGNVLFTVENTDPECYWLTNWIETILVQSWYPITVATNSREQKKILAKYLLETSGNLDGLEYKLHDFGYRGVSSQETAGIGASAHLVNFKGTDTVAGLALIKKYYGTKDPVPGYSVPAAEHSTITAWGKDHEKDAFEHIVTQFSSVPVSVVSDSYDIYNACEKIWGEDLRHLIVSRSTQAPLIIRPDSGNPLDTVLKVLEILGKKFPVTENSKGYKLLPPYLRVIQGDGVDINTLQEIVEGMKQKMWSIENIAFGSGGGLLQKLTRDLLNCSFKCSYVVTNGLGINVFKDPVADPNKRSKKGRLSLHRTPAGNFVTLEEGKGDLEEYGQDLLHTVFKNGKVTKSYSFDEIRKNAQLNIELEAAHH
# In short: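 Inhibition of E. coli-expressed His-tagged human NAMPT, measured as NMN formation by mass spectrometry after a 30 min room-temperature reaction containing 1 μM NAM, 100 μM PRPP and 2.5 mM ATP.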
SMILES,IC50 (A2780 cells; SRB),IC50 (NAMPT; NAMPT enzymatic assay),IC50 (NAMPT; NAMPT enzymatic reaction),IC50 (A2780 cells; SRB assay)
"Cn1cnc2ccc(S(=O)(=O)c3ccc(CNC(=O)c4cnc5nccn5c4)cc3)cc21 [N-{[4-(1-methyl-1H-1,3-benzodiazole-6-sulfonyl)phenyl]methyl}imidazo[1,2-a]pyrimidine-6-carboxamide]",33.8 nM,4 nM,,
"COc1ccc(S(=O)(=O)c2ccc(CNC(=O)c3ccc4nccn4c3)cc2)c(OC)c1 [N-({4-[(2,4-dimethoxybenzene)sulfonyl]phenyl}methyl)imidazo[1,2-a]pyridine-6-carboxamide]",15.1 nM,,58.2 nM,
"COc1ccc(Cl)cc1S(=O)(=O)c1ccc(CNC(=O)c2cc3cnccc3[nH]2)cc1 [N-({4-[(5-chloro-2-methoxybenzene)sulfonyl]phenyl}methyl)-1H-pyrrolo[3,2-c]pyridine-2-carboxamide]",,,6 nM,2 nM
"O=C(NCc1ccc(S(=O)(=O)c2ccccc2Cl)cc1)c1ccc2nccn2c1 [N-({4-[(2-chlorobenzene)sulfonyl]phenyl}methyl)imidazo[1,2-a]pyridine-6-carboxamide]",56.7 nM,,24.1 nM,
"CN(C)C(=O)c1ccccc1S(=O)(=O)c1ccc(CNC(=O)c2cc3cnccc3[nH]2)cc1 [N-[(4-{[2-(dimethylcarbamoyl)benzene]sulfonyl}phenyl)methyl]-1H-pyrrolo[3,2-c]pyridine-2-carboxamide]",100 to 1000 nM,100 to 1000 nM,951 nM,484 nM
COc1cc(F)ccc1S(=O)(=O)c1ccc(CNC(=O)c2cnc3nccn3c2)cc1,73.6 nM,,19.1 nM,
COc1ccc(F)cc1NS(=O)(=O)c1ccc(CN/C(=N\C#N)Nc2ccncc2)cc1 [(E)-2-cyano-3-({4-[(5-fluoro-2-methoxyphenyl)sulfamoyl]phenyl}methyl)-1-(pyridin-4-yl)guanidine],3 nM,,1.1 nM,
O=C(NCc1ccc(S(=O)(=O)c2cc(OC(F)(F)F)ccc2Cl)cc1)c1cnc2nccn2c1,12.5 nM,8 nM,,
"CCN(CC)C(=O)c1cc(Cl)cc(S(=O)(=O)c2ccc(CNC(=O)c3cc4ccncc4o3)cc2)c1 [N-[(4-{[3-chloro-5-(diethylcarbamoyl)benzene]sulfonyl}phenyl)methyl]furo[2,3-c]pyridine-2-carboxamide]",1.7 nM,8.4 nM,,
O=C(NCc1ccc(S(=O)(=O)c2ccccc2C(F)(F)F)cc1)c1cc2ccncc2o1,59.3 nM,19.4 nM,,
O=C(NCc1ccc(S(=O)(=O)c2cc(F)ccc2CO)cc1)c1cc2ccncc2s1,24.9 nM,7.7 nM,,
CCOc1cccc(S(=O)(=O)c2ccc(CNC(=O)c3cnc4nccn4c3)cc2)c1F,19.7 nM,,4 nM,
"Cn1ncc2cccc(S(=O)(=O)c3ccc(CNC(=O)c4cc5cnccc5[nH]4)cc3)c21 [N-{[4-(1-methyl-1H-indazole-7-sulfonyl)phenyl]methyl}-1H-pyrrolo[3,2-c]pyridine-2-carboxamide]",11.1 nM,37.1 nM,,
"O=C(NCc1ccc(S(=O)(=O)c2ccccc2Cl)cc1)c1cc2cnccc2[nH]1 [N-({4-[(2-chlorobenzene)sulfonyl]phenyl}methyl)-1H-pyrrolo[3,2-c]pyridine-2-carboxamide]",,,6 nM,117 nM
"CCCCOc1cccc(S(=O)(=O)c2ccc(CNC(=O)c3cc4ccncc4o3)cc2)c1 [N-({4-[(3-butoxybenzene)sulfonyl]phenyl}methyl)furo[2,3-c]pyridine-2-carboxamide]",69.5 nM,,12.3 nM,
O=C(NCc1ccc(S(=O)(=O)c2ccc(-n3cccn3)cc2F)cc1)c1cnc2nccn2c1,19 nM,2.2 nM,,
COc1ccc(OC(F)(F)F)cc1S(=O)(=O)c1ccc(CNC(=O)c2cnc3[nH]ncc3c2)cc1,24.6 nM,92.6 nM,,
"Cc1cccc(S(=O)(=O)c2ccc(CNC(=O)c3cc4cnccc4[nH]3)cc2)c1C [N-({4-[(2,3-dimethylbenzene)sulfonyl]phenyl}methyl)-1H-pyrrolo[3,2-c]pyridine-2-carboxamide]",7 nM,14 nM,,
"O=C(NCc1ccc(S(=O)(=O)c2cncc(N3CCCC3)c2)cc1)c1cnc2[nH]ncc2c1 [N-({4-[5-(pyrrolidin-1-yl)pyridine-3-sulfonyl]phenyl}methyl)-1H-pyrazolo[3,4-b]pyridine-5-carboxamide]",4 nM,17.9 nM,,
CC(C)Oc1cc(F)ccc1S(=O)(=O)c1ccc(CNC(=O)c2cc3ccncc3s2)cc1,1.6 nM,5 nM,,
"O=C(NCc1ccc(S(=O)(=O)c2cccc(OC(F)(F)F)c2)cc1)c1ccc2nccn2c1 [N-[(4-{[3-(trifluoromethoxy)benzene]sulfonyl}phenyl)methyl]imidazo[1,2-a]pyridine-6-carboxamide]",3.18 nM,8.73 nM,,
CCCCOc1ccc(S(=O)(=O)c2ccc(CNC(=O)c3cc4ccncc4o3)cc2)c(C)c1,64.8 nM,,16 nM,
CC(C)c1ccc(S(=O)(=O)c2ccc(CNC(=O)c3cc4ccncc4o3)cc2)cc1,8 nM,11.9 nM,,

SMILES,IC50 (A2780 cells; SRB),IC50 (NAMPT; NAMPT enzymatic assay),IC50 (NAMPT; NAMPT enzymatic reaction),IC50 (A2780 cells; SRB assay)
COc1ccc(S(=O)(=O)c2ccc(CNC(=O)c3ccc4nccn4c3)cc2)c(Cl)c1,11.4 nM,,16.7 nM,
"O=C(NCc1ccc(S(=O)(=O)c2ccc(-c3ccccc3)cc2)cc1)c1cc2ccncc2o1 [N-({4-[(4-phenylbenzene)sulfonyl]phenyl}methyl)furo[2,3-c]pyridine-2-carboxamide]",6.9 nM,,3.7 nM,
"O=C(NCc1ccc(S(=O)(=O)c2cncc(F)c2)cc1)c1cnc2nccn2c1 [N-{[4-(5-fluoropyridine-3-sulfonyl)phenyl]methyl}imidazo[1,2-a]pyrimidine-6-carboxamide]",56.4 nM,6.7 nM,,
"O=C(NCc1ccc2ncsc2c1)c1ccc(S(=O)(=O)c2cccc(Cl)c2)cc1 [N-(1,3-benzothiazol-6-ylmethyl)-4-[(3-chlorobenzene)sulfonyl]benzamide]",> 10000 nM,10 nM,,
O=C(NCc1ccc(S(=O)(=O)c2ccc(C(F)(F)F)cc2C(F)(F)F)cc1)c1ccc2nccn2c1,53.2 nM,220 nM,,
"O=C(NCc1ccc(S(=O)(=O)c2cc(F)cc(OCC(F)(F)F)c2)cc1)c1cc2ccncc2s1 [N-[(4-{[3-fluoro-5-(2,2,2-trifluoroethoxy)benzene]sulfonyl}phenyl)methyl]thieno[2,3-c]pyridine-2-carboxamide]",3.5 nM,2.9 nM,,
"COc1ccc(S(=O)(=O)c2ccc(CNC(=O)c3cnc4[nH]ncc4c3)cc2)c(Cl)c1 [N-({4-[(2-chloro-4-methoxybenzene)sulfonyl]phenyl}methyl)-1H-pyrazolo[3,4-b]pyridine-5-carboxamide]",87.7 nM,,51.6 nM,
Cc1ccc(S(=O)(=O)c2ccc(CNC(=O)c3cnc4nccn4c3)cc2)cc1C,1.6 nM,,1.1 nM,
CCCOc1ccc(S(=O)(=O)c2ccc(CNC(=O)c3cc4cnccc4[nH]3)cc2)cc1,6.7 nM,,5.3 nM,
"Cc1cc(Cl)ccc1S(=O)(=O)c1ccc(CNC(=O)c2cc3cnccc3[nH]2)cc1 [N-({4-[(4-chloro-2-methylbenzene)sulfonyl]phenyl}methyl)-1H-pyrrolo[3,2-c]pyridine-2-carboxamide]",,,27 nM,25 nM
CCCOc1ccc(S(=O)(=O)c2ccc(CNC(=O)c3cc4ccncc4o3)cc2)c(C)c1,59.6 nM,,22.5 nM,
"Cc1ccccc1S(=O)(=O)c1ccc(CNC(=O)c2cc3cnccc3[nH]2)cc1 [N-({4-[(2-methylbenzene)sulfonyl]phenyl}methyl)-1H-pyrrolo[3,2-c]pyridine-2-carboxamide]",,,14 nM,13 nM
O=C(NCc1ccc(S(=O)(=O)c2ccc(N3CCCC3)cc2)cc1)c1ccc2cn[nH]c2n1,4.5 nM,6 nM,,
"COc1cc(F)c(F)cc1S(=O)(=O)c1ccc(CNC(=O)c2cc3cnccc3[nH]2)cc1 [N-({4-[(4,5-difluoro-2-methoxybenzene)sulfonyl]phenyl}methyl)-1H-pyrrolo[3,2-c]pyridine-2-carboxamide]",,,14 nM,6 nM
COc1ccc(F)cc1S(=O)(=O)c1ccc(CNC(=O)c2cnc3[nH]ncc3c2)cc1,15.1 nM,,39 nM,
Cc1c(F)cccc1S(=O)(=O)c1ccc(CNC(=O)c2cc3cnccc3[nH]2)cc1,13.2 nM,,57.6 nM,
O=C(NCc1ccc(S(=O)(=O)c2cccc(Oc3ccc(F)cc3)c2)cc1)c1cc2ccncc2s1,65.6 nM,2.6 nM,,
"CC(=O)c1ccccc1S(=O)(=O)c1ccc(CNC(=O)c2cc3ccncc3s2)cc1 [N-({4-[(2-acetylbenzene)sulfonyl]phenyl}methyl)thieno[2,3-c]pyridine-2-carboxamide]",,,1 nM,1 nM
CCCOc1cccc(S(=O)(=O)c2ccc(CNC(=O)c3cc4ccncc4s3)cc2)c1,12.2 nM,,4 nM,
"O=C(Nc1ccc(CNC(=O)c2cc3cnccc3[nH]2)cc1)c1ccccc1 [N-[(4-benzamidophenyl)methyl]-1H-pyrrolo[3,2-c]pyridine-2-carboxamide]",,,19 nM,4 nM
"O=C(NCc1ccc(S(=O)(=O)c2ccc3nc(C(F)(F)F)cn3c2)cc1)c1ccc2nccn2c1 [N-({4-[2-(trifluoromethyl)imidazo[1,2-a]pyridine-6-sulfonyl]phenyl}methyl)imidazo[1,2-a]pyridine-6-carboxamide]",7 nM,36.2 nM,,
O=C(NCc1ccc(S(=O)(=O)c2ccc(C(F)(F)F)c(Cl)c2)cc1)c1ccc2nccn2c1,1.2 nM,2.9 nM,,
COc1cc(Cl)ccc1S(=O)(=O)c1ccc(CNC(=O)c2cnc3nccn3c2)cc1,24.7 nM,,3.3 nM,
